One series deals with endothelial cell (EC). Description: EC Proliferation Assay, [3H]thymidine incorporation (Example 36, Table 1). The series is classed as cell-based. The settings on record: read-out: EC proliferation IC50 (conc). As for the experimental part:
Human umbilical vein derived EC(HUVEC) were harvested from normal human umbilical cords by perfusion with 0.125% trypsin/EDTA as described in Groenewegen et al., J. Exp. Med. 164, 131-143 (1986). For determination of quiescent EC phenotype isolated ECs were immediately fixed in 1% paraformaldehyde. Human microvascular ECs (MVECs) were isolated. ECs were cultured in fibronectin coated tissue culture flasks in culture medium (RPMJ-1640 with 20% human serum (HS), supplemented with 2 mM glutamine and 100 U/ml penicillin and 0.1 mg/ml streptomycin).
EC proliferation was measured using a [^3H]thymidine incorporation assay. ECs were seeded at 5000 cells/well in flatbottomed tissue culture plates and grown for 3 days, in the absence or presence of regulators, in culture medium. During the last 6 hours of the assay, the culture was pulsed with 0.5μ Ci [methyl-^3H]thymidine/well.
A general note: Incorporation of labelled thymidine or its analogues reports DNA synthesis.

The subject of series [1] is EC. As to the kind of experiment: EC % apoptosis (Table 1). The series is classed as cell-based, human.
The test system of series [2] is EC. Description: EC % total cell death (Table 1). The series is classed as cell-based, human.
Another series relates to Fibro. As to the kind of experiment: Other cells, Fibro (Table 1). The series is classed as cell-based.
The next series deals with MA148. As to the kind of experiment: Other cells, MA148 (Table 1). The series is classed as cell-based, human.
The subject of the next series is SCK. Description: Other cells, SCK (Table 1). The series is classed as cell-based.
A further series has as its system E. coli J96. Description: Bactericidal assay on J96. The class given is cell-based. As to conditions: for IC50: read-out: Bacterial activity on J96 IC50 (conc). The text has this: Pseudomonas aeruginosa type 1 is a clinical, smooth strain isolate stereotyped by using the scheme of Homma et al., Japan. J. Exp. Med. 46, 329-336 (1976) and maintained in the lab by monthly transfer on blood agar plates. E. coli J96, IA2, and H5 are smooth strain, uropathogenic clinical isolates kindly maintained and provided by J. R. Johnson and described in Johnson et al., J. Infect. Disease 173, 920-926 (1996) for J96 and IA2 and in Johnson et al., J. Infect. Disease 173, 746-749 (1996) for H5. J5 is an E. coli rough strain initially referenced by G. R. Siber and discussed in Warren et al., Infect. Immunity 55, 1668-1673 (1987) and is analogous to the smooth strain E. coli 0111:B4 used in the BioWhittaker LAL endotoxin detection and quantitation kit described below. Gram-positive MN8 and MNHO are two patient isolates of Staphylococcus aureus, which were kindly provided by P. M. Schlievert and described in Bohach et al., Rev. Infect. Diseases 11, 75-82 (1989) for MNHO and in Schlievert et al., J. Infect. Diseases 147, 236-242 (1983) for MN8. All cultures are maintained on nutrient agar plates.
Pyrogen-free solutions were used throughout the assay. Log phase bacteria were obtained by transferring an overnight culture or scraping crystals off-85° C glycerol stocks of overnight cultures. Bacteria were washed and resuspended in 0.9% sodium chloride with adjustment to an optical density at 650 nm which yields 3×10^8 CFU/ml. Bacteria were then diluted 1:10 in 0.08 M citrate phosphate buffer, pH 7.0 (prepared by mixing 0.08 M citric acid with 0.08 M dibasic sodium phosphate). Bacteria (0.15 ml) were incubated with the test compound in a final volume of 1.0 ml of buffer. The assay was done in 17×100 polypropylene tubes in a reciprocal water bath shaker at 37° C for 30 minutes. Following this 30 minute (min) incubation. 10-fold dilutions were made in 0.9% sodium chloride. Dilutions were done to 10^−4 and 20 μl of each dilution was streaked across an agar plate. Gram-positive organisms were plated on nutrient agar plates containing 2% agar and Gram-negative organisms were plated on MacConkey agar (2%). Plates were incubated overnight at 37° C and counted the next morning. The dilution containing 10-100 bacteria was counted and the number multiplied by 50 to adjust all counts to the number bacteria killed per milliliter. Compound concentrations were converted to logarithm base ten and graphed. Bactericidal activity was determined by dose response where LD50 values were determined by best fits of a sigmoidal curve to the dose response data.

The nature of another series: Hemolysis (Table 1). The class given is cell-based.
The nature of the next series: Solubility (Table 1). The class given is physicochemical.
Series [3] deals with LPS from E. coli serotype 0111:B4. As to the kind of experiment: LPS neutralization assay (Limulus amoebocyte lysate, QCL-1000). The series is classed as biochemical. The settings on record: Table 3; errors estimated ±30%; read-out: IC50 values (μM) for LPS binding, E. coli 0111:B4. An excerpt:
(§1) The ability of compounds to neutralize endotoxin was detected in vitro by using the chromogenic QCL-1000 kit from BioWhittaker, Inc. (Walkersville, Md.), and as described in their protocol. This Limulus amoebocyte lysate (LAL) assay is quantitative for Gram negative bacterial endotoxin (lipopolysaccharide, LPS). In this assay compounds that are active inhibit the LPS-mediated activation of a proenzyme whose active form would release p-nitroaniline (pNA) from a colorless synthetic substrate producing a yellow color (pNA) whose absorption is monitored spectrophotometrically at 405-410 nm. The initial rate of enzyme activation is proportional to the concentration of endotoxin present.
(§2) Variants of LPS from six Gram negative bacteria were used: E. coli serotypes 0111:B4 (Combrex, Walkersville, Md.) and 055:B5 (Sigma, St. Louis, Mo.); Klebsiella pneumoniae (List Biologies, San Jose, Calif.); Pseudomonas aeruginosa (List Biologies, San Jose, Calif.); Salmonella typhimurium (List Biologies, San Jose, Calif.), and Serratia marcascens (List Biologies, San Jose, Calif.). The concentration of compound required to neutralize a given LPS and therefore to inhibit the Limulus amoebocyte lysate driven by 0.04 units of any given LPS was determined by dose response curves fit by using a standard sigmoidal function to determined the JC50 value for each lopomimetic compound. The 0.04 units corresponds to 0.01 ng LPS from E. coli serotype 055:B5, 0.01 ng LPS from E. coli serotype 0111:B4, 0.003 ng LPS from K. pneumoniae, 0.01 ng LPS from P. aeruginosa, 0.03 ng LPS from S. typhimurium, and 0.03 ng LPS from S. marcascens.

Series [4] concerns LPS from E. coli serotype 055:B5. The description is as above. The series is classed as biochemical. As to conditions: Table 3; errors estimated ±30%; read-out: IC50 values (μM) for LPS binding, E. coli 055:B5.
Excerpt: as §1, §2

Another series relates to LPS from P. aeruginosa. Described as above. The series is classed as biochemical, Pseudomonas aeruginosa. As to conditions: Table 3; errors estimated ±30%; read-out: IC50 values (μM) for LPS binding, P.a.
Excerpt: as §1, §2

A further series has as its system LPS from K. pneumoniae. The series is described as above. The class given is biochemical, Klebsiella pneumoniae. As to conditions: Table 3; errors estimated ±30%; read-out: IC50 values (μM) for LPS binding, Klebsiella.
Excerpt: as §1, §2

The next series concerns LPS from S. typhimurium. The series is described as above. The class given is biochemical, Salmonella typhimurium. The settings on record: Table 3; errors estimated ±30%; read-out: IC50 values (μM) for LPS binding, Salmonella.
Excerpt: as §1, §2

For another series, the system named is LPS from S. marcascens. The description is as above. The series is classed as biochemical, Serratia marcascens. As to conditions: Table 3; errors estimated ±30%; read-out: IC50 values (μM) for LPS binding, Serratia.
Excerpt: as §1, §2

For a further series, the system named is bFGF-stimulated HUVEC. As to the kind of experiment: EC proliferation, [3H]-thymidine incorporation, bFGF-stimulated HUVEC (Example 48). The series is classed as cell-based, human. The settings on record: bFGF-stimulated HUVEC; highest dose tested 25 μM. As for the experimental part:
Proliferation is expressed as mean counts per minute (cpm) of quadruplicate cultures in three independent experiments (±SEM). […] Human umbilical vein derived EC (HUVEC) were harvested from normal human umbilical cords by perfusion with 0.125% trypsin/EDTA. Harvested HUVECs were cultured in gelatin coated tissue culture flasks and subcultured 1:3 once a week in culture medium (RPM1-1640 with 20% human serum (HS), supplemented with 2 mM glutamine and 100 U/mL penicillin and 0.1 mg/mL streptomycin). Statistical analysis was performed by using the Student's t-test.

The next series concerns fibroblasts. Description: Proliferation of fibroblasts (general cell toxicity check). As to conditions: read-out: concentration giving 50% growth inhibition, fibroblasts. The series is classed as cell-based.
Series [5] concerns MA148 human ovarian carcinoma. As to the kind of experiment: Proliferation of MA148 tumor cells. The class given is cell-based. The settings on record: read-out: IC50 against MA148 tumor cells.
For a further series, the system named is B16F10 tumor cells. As to the kind of experiment: Proliferation of B16F10 tumor cells. The series is classed as cell-based, murine. As to conditions: read-out: IC50 against B16F10 tumor cells.
The next series deals with HUVEC. Description: EC migration, wound healing assay. The class given is cell-based, human. The settings on record: 25 μM. The protocol: EC migration was measured in the wound healing assay. HUVEC were cultured in triplicate on a 1-mg/ml fibronectin coat in a 24-well tissue culture plate. Cells were grown for 3 days until confluence. When confluent, a wound was made in the well, using a blunt glass pipette. The medium was replaced with medium containing 10 ng/ml bFGF with or without 25 μM compound and at 0, 2, 4, 6, and 8 hours, the wound width was measured at four different predefined places. Photographs were made using an inverted microscope and a Contax 167 MT 35 mm camera.

As to `CC(C)(C)c1cc2c(O)c(c1)Cc1cc(C(C)(C)C)cc(c1OCCNC(=N)N)Cc1cc(C(C)(C)C)cc(c1O)Cc1cc(C(C)(C)C)cc(c1OCCNC(=N)N)C2`, the IC50 in the series with endothelial cell (EC) is 8.3 µM; with E. coli J96 it was more than 3.8 µM. For the same compound, the “EC % Apoptosis 25 μM” value in the series on EC [1] is “No effect”. Besides, the “EC % total cell death” value with EC [2] turned out to be 65%. In addition, the “Other cells 25 μM, Fibro” value with Fibro was found to be 100% 100% 100%. Also, the “Other cells 25 μM, MA148” value with MA148 was 100% 100% 100%. Further, the “Other cells 25 μM, SCK” value in the series with SCK worked out at 100% 100% 100%. Besides, in “Hemolysis (Table 1)” (at 10^−6 M), the Hemolysis was 100% at 10^−6 M. For the same compound, in “Solubility (Table 1)” (DMSO/H2O (30/70%), at >80° C., no infl. of pH 2 + 11), the Solubility entry is recorded as “DMSO/H2O (30/70%) up to 30 mg/ml at >80° C., no infl. of pH 2 + 11”.
Turning to `CCCc1cc2c(OCC(=O)NCCN(C)C)c(c1)Cc1cc(CCC)cc(c1OCC(=O)NCCN(C)C)Cc1cc(CCC)cc(c1OCC(=O)NCCN(C)C)Cc1cc(CCC)cc(c1OCC(=O)NCCN(C)C)C2` [Compound 11a], in the series with E. coli J96 (in the micromolar range (Table 1)), the “bactericidal activity (in words)” value is reported as “reasonably good bactericidal activity”. The IC50 in series [3] was more than 5 µM; in [4], 4.4 µM; in the series with LPS from P. aeruginosa, more than 5 µM; with LPS from K. pneumoniae, 0.08 µM; with LPS from S. typhimurium, 4.1 µM; in the series with LPS from S. marcascens, more than 5 µM. In addition, the IC50 is more than 25 µM in the series on bFGF-stimulated HUVEC, approximately 20 µM with fibroblasts, 8 µM in series [5] and 15 µM in the series on B16F10 tumor cells. In the series with HUVEC, the “effect on EC migration, wound assay (in words)” value was “ineffective”.
As for `CN(C)CCNC(=O)COc1c2cccc1Cc1cccc(c1OCC(=O)NCCN(C)C)Cc1cccc(c1OCC(=O)NCCN(C)C)Cc1cccc(c1OCC(=O)NCCN(C)C)C2` [drawing 7], the IC50 with endothelial cell (EC) is 2.5 µM; with E. coli J96, more than 3.8 µM. In addition, the “EC % Apoptosis 25 μM” value with EC [1] is on record as “No effect”. Moreover, the “EC % total cell death” value in the series with EC [2] is listed as “No effect”. For the same compound, the “Other cells 25 μM, Fibro” value in the series with Fibro is 0%. Moreover, the “Other cells 25 μM, MA148” value in the series with MA148 is reported as 80%. For the same compound, in the series with SCK, the “Other cells 25 μM, SCK” value turned out to be 40%. Also, the Hemolysis result in the series “Hemolysis (Table 1)” (at 10^−5 M) was “None at 10^−5 M”. In addition, the Solubility entry in the series “Solubility (Table 1)” (H2O, at pH <7.0, r.t.) was “H2O up to 30 mg/ml at pH <7.0, r.t”.
